Experimental findings from the supplement of paper PMC11368000 are described below.

The test system of one test is 30145 (donor line of iPSC-derived cardiomyocytes). Nature of the test: POD (EC05) for decrease in beat frequency (negative chronotrope) vs vehicle; higher = less potent (higher point of departure). As to conditions: exposure time: 90 min. The method, then: (§1)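 Human iPSC-derived cardiomyocytes from 16 donors were exposed for 90 min at 37 °C to each PFAS at 0.1, 1, 10 and 100 µM in 0.5% DMSO, 384-well plates. Kinetic Ca2+ flux (FLIPR) and Hoechst nuclei counts were normalised to vehicle wells and fitted with a hierarchical Bayesian Hill model to give donor-specific PODs: EC05 for beat-rate increase or decrease and for decay-to-rise ratio increase (QT proxy), EC95 for peak-frequency loss (asystole), EC10 for total cell number loss. 0.03 µM is the lower bound.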
On to `O=C(O)C(F)(F)C(F)(F)OC(F)(F)F` [Perfluoro-3-methoxypropanoic_acid], for which the POD vs vehicle was > 100 µM.
On the same count and under the same terms, for `O=C(O)C(F)(F)C(F)(F)C(F)(F)OC(F)(C(F)(F)F)C(F)(F)F` [Perfluoro-4-isopropoxybutanoic_acid] the value was > 100 µM.
Consider `O=S(=O)(O)C(F)(F)C(F)(F)C(F)(F)C(F)(F)F` [Perfluorobutanesulfonic_acid], for which the POD vs vehicle was > 100 µM.
Regarding `O=C(O)C(F)(F)C(F)(F)C(F)(F)F` [Perfluorobutanoic_acid], the POD vs vehicle was > 100 µM.
Same read-out and setting: then `O=C(O)C(F)(F)C(F)(F)C(F)(F)C(F)(F)C(F)(F)C(F)(F)C(F)(F)C(F)(F)C(F)(F)F` [Perfluorodecanoic_acid], with > 100 µM.
Still for that read-out and setting: for `O=C(O)C(F)(F)C(F)(F)C(F)(F)C(F)(F)C(F)(F)C(F)(F)F` [Perfluoroheptanoic_acid] the value was > 100 µM.
The compound `NS(=O)(=O)C(F)(F)C(F)(F)C(F)(F)C(F)(F)C(F)(F)C(F)(F)F` [Perfluorohexanesulfonamide] came in with a POD vs vehicle of 34.9 µM.
As to `O=S(=O)(O)C(F)(F)C(F)(F)C(F)(F)C(F)(F)C(F)(F)C(F)(F)F` [Perfluorohexanesulfonic_acid], the POD vs vehicle is > 100 µM.
In the case of `O=C(O)C(F)(F)C(F)(F)C(F)(F)C(F)(F)C(F)(F)F` [Perfluorohexanoic_acid], the POD vs vehicle was > 100 µM.
On the same count and under the same terms, then `O=C(O)C(F)(F)C(F)(F)C(F)(F)C(F)(F)C(F)(F)C(F)(F)C(F)(F)C(F)(F)F` [Perfluorononanoic_acid], with > 100 µM; and `O=S(=O)(O)C(F)(F)C(F)(F)C(F)(F)C(F)(F)C(F)(F)C(F)(F)C(F)(F)C(F)(F)F` [Perfluorooctanesulfonic_acid], with > 100 µM.
On the same count and under the same terms, for `O=C(O)C(F)(F)C(F)(F)C(F)(F)C(F)(F)C(F)(F)C(F)(F)C(F)(F)F` [Perfluorooctanoic_acid] the value was > 100 µM.
Still for that read-out and setting: then `O=C(O)C(F)(F)C(F)(F)C(F)(F)C(F)(F)F` [Perfluoropentanoic_acid], with > 100 µM; and `O=C(O)C(F)(F)C(F)(F)F` [Perfluoropropanoic_acid], with > 100 µM; and `O=C(O)C(F)(F)C(F)(F)C(F)(F)C(F)(F)C(F)(F)C(F)(F)C(F)(F)C(F)(F)C(F)(F)C(F)(F)F` [Perfluoroundecanoic_acid], with > 100 µM.
On to `O=S(=O)([O-])C(F)(F)C(F)(F)C(F)(F)C(F)(F)F.[K+]` [Potassium_perfluorobutanesulfonate], for which the POD vs vehicle was > 100 µM.

The subject of the next test is 1535 (donor line of iPSC-derived cardiomyocytes). The description is as above. Particulars: exposure time: 90 min. The method, then:
as §1
Take `O=C(O)C(F)(F)C(F)(F)OC(F)(F)F` [Perfluoro-3-methoxypropanoic_acid]: the POD vs vehicle was > 100 µM.
Same read-out and setting: then `O=C(O)C(F)(F)C(F)(F)C(F)(F)OC(F)(C(F)(F)F)C(F)(F)F` [Perfluoro-4-isopropoxybutanoic_acid], with > 100 µM; and `O=S(=O)(O)C(F)(F)C(F)(F)C(F)(F)C(F)(F)F` [Perfluorobutanesulfonic_acid], with > 100 µM; and `O=C(O)C(F)(F)C(F)(F)C(F)(F)F` [Perfluorobutanoic_acid], with > 100 µM.
The same measure, in the same setting: for `O=C(O)C(F)(F)C(F)(F)C(F)(F)C(F)(F)C(F)(F)C(F)(F)C(F)(F)C(F)(F)C(F)(F)F` [Perfluorodecanoic_acid] the value was 66.5 µM.
On the same count and under the same terms, for `O=C(O)C(F)(F)C(F)(F)C(F)(F)C(F)(F)C(F)(F)C(F)(F)F` [Perfluoroheptanoic_acid] the value was > 100 µM.
As for `NS(=O)(=O)C(F)(F)C(F)(F)C(F)(F)C(F)(F)C(F)(F)C(F)(F)F` [Perfluorohexanesulfonamide], the POD vs vehicle was 12.6 µM.
Compound `O=S(=O)(O)C(F)(F)C(F)(F)C(F)(F)C(F)(F)C(F)(F)C(F)(F)F` [Perfluorohexanesulfonic_acid] came in with a POD vs vehicle of 43.4 µM.
On to `O=C(O)C(F)(F)C(F)(F)C(F)(F)C(F)(F)C(F)(F)F` [Perfluorohexanoic_acid], for which the POD vs vehicle is > 100 µM.
`O=C(O)C(F)(F)C(F)(F)C(F)(F)C(F)(F)C(F)(F)C(F)(F)C(F)(F)C(F)(F)F` [Perfluorononanoic_acid] returned a POD vs vehicle of 31.8 µM.
Regarding `O=S(=O)(O)C(F)(F)C(F)(F)C(F)(F)C(F)(F)C(F)(F)C(F)(F)C(F)(F)C(F)(F)F` [Perfluorooctanesulfonic_acid], the POD vs vehicle is > 100 µM.
As for `O=C(O)C(F)(F)C(F)(F)C(F)(F)C(F)(F)C(F)(F)C(F)(F)C(F)(F)F` [Perfluorooctanoic_acid], the POD vs vehicle came to 41.8 µM.
The same measure, in the same setting: for `O=C(O)C(F)(F)C(F)(F)C(F)(F)C(F)(F)F` [Perfluoropentanoic_acid] the value was > 100 µM; for `O=C(O)C(F)(F)C(F)(F)F` [Perfluoropropanoic_acid], > 100 µM.
On the same count and under the same terms, then `O=C(O)C(F)(F)C(F)(F)C(F)(F)C(F)(F)C(F)(F)C(F)(F)C(F)(F)C(F)(F)C(F)(F)C(F)(F)F` [Perfluoroundecanoic_acid], with > 100 µM; and `O=S(=O)([O-])C(F)(F)C(F)(F)C(F)(F)C(F)(F)F.[K+]` [Potassium_perfluorobutanesulfonate], with > 100 µM.

The test system of another test is 1531 (donor line of iPSC-derived cardiomyocytes). The test is described as above. Particulars: exposure time: 90 min. On the procedure:
as §1
As to `O=C(O)C(F)(F)C(F)(F)OC(F)(F)F` [Perfluoro-3-methoxypropanoic_acid], the POD vs vehicle was > 100 µM.
On the same count and under the same terms, for `O=C(O)C(F)(F)C(F)(F)C(F)(F)OC(F)(C(F)(F)F)C(F)(F)F` [Perfluoro-4-isopropoxybutanoic_acid] the value was > 100 µM.
Regarding `O=S(=O)(O)C(F)(F)C(F)(F)C(F)(F)C(F)(F)F` [Perfluorobutanesulfonic_acid], the POD vs vehicle is > 100 µM.
For the compound `O=C(O)C(F)(F)C(F)(F)C(F)(F)F` [Perfluorobutanoic_acid], the POD vs vehicle was > 100 µM.
Still for that read-out and setting: for `O=C(O)C(F)(F)C(F)(F)C(F)(F)C(F)(F)C(F)(F)C(F)(F)C(F)(F)C(F)(F)C(F)(F)F` [Perfluorodecanoic_acid] the value was 64.4 µM; for `O=C(O)C(F)(F)C(F)(F)C(F)(F)C(F)(F)C(F)(F)C(F)(F)F` [Perfluoroheptanoic_acid], 78.7 µM; for `NS(=O)(=O)C(F)(F)C(F)(F)C(F)(F)C(F)(F)C(F)(F)C(F)(F)F` [Perfluorohexanesulfonamide], 6.44 µM.
Same read-out and setting: for `O=S(=O)(O)C(F)(F)C(F)(F)C(F)(F)C(F)(F)C(F)(F)C(F)(F)F` [Perfluorohexanesulfonic_acid] the value was 24.5 µM; for `O=C(O)C(F)(F)C(F)(F)C(F)(F)C(F)(F)C(F)(F)F` [Perfluorohexanoic_acid], > 100 µM.
Still for that read-out and setting: then `O=C(O)C(F)(F)C(F)(F)C(F)(F)C(F)(F)C(F)(F)C(F)(F)C(F)(F)C(F)(F)F` [Perfluorononanoic_acid], with 40.2 µM; and `O=S(=O)(O)C(F)(F)C(F)(F)C(F)(F)C(F)(F)C(F)(F)C(F)(F)C(F)(F)C(F)(F)F` [Perfluorooctanesulfonic_acid], with 59.1 µM; and `O=C(O)C(F)(F)C(F)(F)C(F)(F)C(F)(F)C(F)(F)C(F)(F)C(F)(F)F` [Perfluorooctanoic_acid], with 49 µM.
Regarding `O=C(O)C(F)(F)C(F)(F)C(F)(F)C(F)(F)F` [Perfluoropentanoic_acid], the POD vs vehicle was > 100 µM.
The same measure, in the same setting: for `O=C(O)C(F)(F)C(F)(F)F` [Perfluoropropanoic_acid] the value was > 100 µM; for `O=C(O)C(F)(F)C(F)(F)C(F)(F)C(F)(F)C(F)(F)C(F)(F)C(F)(F)C(F)(F)C(F)(F)C(F)(F)F` [Perfluoroundecanoic_acid], > 100 µM.
Still for that read-out and setting: for `O=S(=O)([O-])C(F)(F)C(F)(F)C(F)(F)C(F)(F)F.[K+]` [Potassium_perfluorobutanesulfonate] the value was > 100 µM.

For the next test, the system named is 20032 (donor line of iPSC-derived cardiomyocytes). The test is described as above. Particulars: exposure time: 90 min. On the procedure: as §1
Consider `O=C(O)C(F)(F)C(F)(F)OC(F)(F)F` [Perfluoro-3-methoxypropanoic_acid], for which the POD vs vehicle was > 100 µM.
On to `O=C(O)C(F)(F)C(F)(F)C(F)(F)OC(F)(C(F)(F)F)C(F)(F)F` [Perfluoro-4-isopropoxybutanoic_acid], for which the POD vs vehicle was > 100 µM.
With `O=S(=O)(O)C(F)(F)C(F)(F)C(F)(F)C(F)(F)F` [Perfluorobutanesulfonic_acid], the POD vs vehicle was > 100 µM.
On the same count and under the same terms, then `O=C(O)C(F)(F)C(F)(F)C(F)(F)F` [Perfluorobutanoic_acid], with > 100 µM; and `O=C(O)C(F)(F)C(F)(F)C(F)(F)C(F)(F)C(F)(F)C(F)(F)C(F)(F)C(F)(F)C(F)(F)F` [Perfluorodecanoic_acid], with > 100 µM; and `O=C(O)C(F)(F)C(F)(F)C(F)(F)C(F)(F)C(F)(F)C(F)(F)F` [Perfluoroheptanoic_acid], with > 100 µM.
`NS(=O)(=O)C(F)(F)C(F)(F)C(F)(F)C(F)(F)C(F)(F)C(F)(F)F` [Perfluorohexanesulfonamide] displayed a POD vs vehicle of 13.4 µM.
Still for that read-out and setting: then `O=S(=O)(O)C(F)(F)C(F)(F)C(F)(F)C(F)(F)C(F)(F)C(F)(F)F` [Perfluorohexanesulfonic_acid], with 84.5 µM; and `O=C(O)C(F)(F)C(F)(F)C(F)(F)C(F)(F)C(F)(F)F` [Perfluorohexanoic_acid], with > 100 µM; and `O=C(O)C(F)(F)C(F)(F)C(F)(F)C(F)(F)C(F)(F)C(F)(F)C(F)(F)C(F)(F)F` [Perfluorononanoic_acid], with 27.9 µM.
Same read-out and setting: for `O=S(=O)(O)C(F)(F)C(F)(F)C(F)(F)C(F)(F)C(F)(F)C(F)(F)C(F)(F)C(F)(F)F` [Perfluorooctanesulfonic_acid] the value was > 100 µM; for `O=C(O)C(F)(F)C(F)(F)C(F)(F)C(F)(F)C(F)(F)C(F)(F)C(F)(F)F` [Perfluorooctanoic_acid], 51.5 µM; for `O=C(O)C(F)(F)C(F)(F)C(F)(F)C(F)(F)F` [Perfluoropentanoic_acid], > 100 µM.
Same read-out and setting: for `O=C(O)C(F)(F)C(F)(F)F` [Perfluoropropanoic_acid] the value was > 100 µM; for `O=C(O)C(F)(F)C(F)(F)C(F)(F)C(F)(F)C(F)(F)C(F)(F)C(F)(F)C(F)(F)C(F)(F)C(F)(F)F` [Perfluoroundecanoic_acid], > 100 µM.
For the compound `O=S(=O)([O-])C(F)(F)C(F)(F)C(F)(F)C(F)(F)F.[K+]` [Potassium_perfluorobutanesulfonate], the POD vs vehicle is > 100 µM.

The next test concerns 1392 (donor line of iPSC-derived cardiomyocytes). Described as above. As to conditions: exposure time: 90 min. On the procedure:
as §1
For `O=C(O)C(F)(F)C(F)(F)OC(F)(F)F` [Perfluoro-3-methoxypropanoic_acid], the POD vs vehicle was > 100 µM.
The same measure, in the same setting: for `O=C(O)C(F)(F)C(F)(F)C(F)(F)OC(F)(C(F)(F)F)C(F)(F)F` [Perfluoro-4-isopropoxybutanoic_acid] the value was > 100 µM.
The same measure, in the same setting: then `O=S(=O)(O)C(F)(F)C(F)(F)C(F)(F)C(F)(F)F` [Perfluorobutanesulfonic_acid], with > 100 µM; and `O=C(O)C(F)(F)C(F)(F)C(F)(F)F` [Perfluorobutanoic_acid], with > 100 µM; and `O=C(O)C(F)(F)C(F)(F)C(F)(F)C(F)(F)C(F)(F)C(F)(F)C(F)(F)C(F)(F)C(F)(F)F` [Perfluorodecanoic_acid], with 27.5 µM.
Same read-out and setting: for `O=C(O)C(F)(F)C(F)(F)C(F)(F)C(F)(F)C(F)(F)C(F)(F)F` [Perfluoroheptanoic_acid] the value was > 100 µM; for `NS(=O)(=O)C(F)(F)C(F)(F)C(F)(F)C(F)(F)C(F)(F)C(F)(F)F` [Perfluorohexanesulfonamide], 91.8 µM.
For `O=S(=O)(O)C(F)(F)C(F)(F)C(F)(F)C(F)(F)C(F)(F)C(F)(F)F` [Perfluorohexanesulfonic_acid], the POD vs vehicle is > 100 µM.
Same read-out and setting: for `O=C(O)C(F)(F)C(F)(F)C(F)(F)C(F)(F)C(F)(F)F` [Perfluorohexanoic_acid] the value was > 100 µM; for `O=C(O)C(F)(F)C(F)(F)C(F)(F)C(F)(F)C(F)(F)C(F)(F)C(F)(F)C(F)(F)F` [Perfluorononanoic_acid], > 100 µM; for `O=S(=O)(O)C(F)(F)C(F)(F)C(F)(F)C(F)(F)C(F)(F)C(F)(F)C(F)(F)C(F)(F)F` [Perfluorooctanesulfonic_acid], > 100 µM.
For `O=C(O)C(F)(F)C(F)(F)C(F)(F)C(F)(F)C(F)(F)C(F)(F)C(F)(F)F` [Perfluorooctanoic_acid], the POD vs vehicle is > 100 µM.
Regarding `O=C(O)C(F)(F)C(F)(F)C(F)(F)C(F)(F)F` [Perfluoropentanoic_acid], the POD vs vehicle is > 100 µM.
The same measure, in the same setting: then `O=C(O)C(F)(F)C(F)(F)F` [Perfluoropropanoic_acid], with > 100 µM; and `O=C(O)C(F)(F)C(F)(F)C(F)(F)C(F)(F)C(F)(F)C(F)(F)C(F)(F)C(F)(F)C(F)(F)C(F)(F)F` [Perfluoroundecanoic_acid], with > 100 µM.
`O=S(=O)([O-])C(F)(F)C(F)(F)C(F)(F)C(F)(F)F.[K+]` [Potassium_perfluorobutanesulfonate]: the POD vs vehicle was > 100 µM.
